From patent publication US9604975B2, “Indolyl-pyridone derivatives having checkpoint kinase 1 inhibitory activity” (Vernalis (R&D) Ltd., priority 2009, dated 2017)

Molecular target: T1, CHK1 (Homo sapiens, UniProt O14757)
T1 construct: His; purchased Invitrogen
T1 sequence (O14757 1-476): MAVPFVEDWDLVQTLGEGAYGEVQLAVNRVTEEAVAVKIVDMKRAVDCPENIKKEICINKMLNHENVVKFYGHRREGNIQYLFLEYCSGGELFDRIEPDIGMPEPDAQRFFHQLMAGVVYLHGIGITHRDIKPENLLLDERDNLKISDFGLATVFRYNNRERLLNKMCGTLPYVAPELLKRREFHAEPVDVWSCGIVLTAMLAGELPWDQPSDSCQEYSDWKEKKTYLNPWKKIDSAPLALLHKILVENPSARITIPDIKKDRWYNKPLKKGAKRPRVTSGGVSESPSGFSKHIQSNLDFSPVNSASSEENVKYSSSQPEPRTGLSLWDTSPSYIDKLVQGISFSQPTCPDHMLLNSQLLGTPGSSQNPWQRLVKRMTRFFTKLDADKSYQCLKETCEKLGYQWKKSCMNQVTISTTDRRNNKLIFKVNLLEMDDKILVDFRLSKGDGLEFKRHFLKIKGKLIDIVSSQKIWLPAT
Assay: CHK1 Enzyme Assay (phosphorylation of Chktide peptide, 33P-ATP filter assay)
Type: biochemical
Conditions: 12.5 nM His-CHK1, 0.01 mM ATP, 40 minutes at 30° C.; read-out: CHK1 Enzyme Activity (IC50 range)
Method in brief: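 Filter-binding radiometric readout of 33P incorporation into Chktide (14.8 μM), after a 40 min, 30 °C reaction at pH 7.5 (50 mM Hepes-NaOH, 0.1 mg/mL BSA). The reaction contained 12.5 nM His-tagged CHK1, inhibitor and 0.01 mM cold ATP plus labelled ATP.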

Compound | IC50 [nM]
CCc1cccc(Cn2cc(C(=O)Nc3c[nH]c(=O)c(-c4cc5cc(OCCN6CC(C)OC(C)C6)ccc5[nH]4)c3)cn2)c1 (stereo not drawn) [Example 138, 1-(3-Ethyl-benzyl)-1H-pyrazole-4-carboxylic acid (5-{5-[2-(2,6-dimethyl-morpholin-4-yl)-ethoxy]1H-indol-2-yl}-6-oxo-1,6-dihydro-pyridin-3-yl)-amide] | < 100
O=C(Nc1c[nH]c(=O)c(-c2cc3cc(OCCN4CCCCC4)ccc3[nH]2)c1)c1cnn(Cc2ccc(C(F)(F)F)cc2)c1 [Example 121, 1-(4-Trifluoromethyl-benzyl)-1H-pyrazole-4-carboxylic acid {6-oxo-5-[5-(2-piperidin-1-yl-ethoxy)-1H-indol-2-yl]-1,6-dihydro-pyridin-3-yl}-amide] | < 100
O=C(Nc1c[nH]c(=O)c(-c2cc3cc(CN4CC[C@H](F)C4)ccc3[nH]2)c1)c1cnn(Cc2ccccc2)c1 [Example 175, 1-Benzyl-1H-pyrazole-4-carboxylic acid {5-[5-((S)-3-fluoro-pyrrolidin-1-ylmethyl)-1H-indol-2-yl]-6-oxo-1,6-dihydro-pyridin-3-yl}-amide] | < 100
N#Cc1ccc(Cn2cc(NC(=O)c3c[nH]c(=O)c(-c4cc5ccccc5[nH]4)c3)cn2)cc1 [Example 7, 5-(1H-Indol-2-yl)-6-oxo-1,6-dihydro-pyridine-3-carboxylic acid [1-(4-cyano-benzyl)-1H-pyrazol-4-yl]-amide] | 500 to 1500
Cc1ccc(Cn2cc(C(=O)Nc3c[nH]c(=O)c(-c4cc5cc(CN6CCC(F)CC6)ccc5[nH]4)c3)cn2)cc1 [Example 37, 1-(4-Methyl-benzyl)-1H-pyrazole-4-carboxylic acid {5-[5-(4-fluoro-piperidin-1-ylmethyl)-1H-indol-2-yl]-6-oxo-1,6-dihydro-pyridin-3-yl}-amide] | < 100
O=C(Nc1c[nH]c(=O)c(-c2cc3ccccc3[nH]2)c1)c1cnn(Cc2ccc(Cl)cc2)c1 [Example 28, 1-(4-Chloro-benzyl)-1H-pyrazole-4-carboxylic acid [5-(1H-indol-2-yl)-6-oxo-1,6-dihydro-pyridin-3-yl]-amide] | < 100
CC1CCN(Cc2ccc3[nH]c(-c4cc(NC(=O)c5cnn([C@@H](C)c6ccccc6)c5)c[nH]c4=O)cc3c2)CC1 [Example 165, 1-((S)-1-Phenyl-ethyl)-1H-pyrazole-4-carboxylic acid {5-[5-(4-methyl-piperidin-1-ylmethyl)-1H-indol-2-yl]-6-oxo-1,6-dihydro-pyridin-3-yl}-amide] | < 100
C[C@@H](c1ccccc1)n1cc(C(=O)Nc2c[nH]c(=O)c(-c3cc4cc(CN5CCCCC5)ccc4[nH]3)c2)cn1 [Example 162, 1-((S)-1-Phenyl-ethyl)-1H-pyrazole-4carboxylic acid [6-oxo-5-(5-piperidin-1-ylmethyl-1H-indol-2-yl)-1,6-dihydro-pyridin-3-yl]-amide] | < 100
O=C(Nc1c[nH]c(=O)c(-c2cc3cc(CNCCO)ccc3[nH]2)c1)c1cnn(Cc2ccccc2)c1 [Example 61] | < 100
CCN(CC)CCOc1ccc2[nH]c(-c3cc(NC(=O)c4cnn(Cc5ccc(C)cc5)c4)c[nH]c3=O)cc2c1 [Example 125, 1-(4-Methyl-benzyl)-1H-pyrazole-4-carboxylic acid {5-[5-(2-diethylamino-ethoxy)-1H-indol-2-yl]-6-oxo-1,6-dihydro-pyridin-3-yl}-amide] | < 100
CC1CN(Cc2ccc3[nH]c(-c4cc(NC(=O)c5cnn(Cc6ccc(C(C)C)cc6)c5)c[nH]c4=O)cc3c2)CC(C)O1 (stereo not drawn) [Example 72, 1-(4-isopropylbenzyl)-1H-pyrazole-4-carboxylic acid {5-[5-(2,6-dimethylmorpholin-4-ylmethyl)-1H-indol-2-yl)-6-oxo-1,6-dihydropyridin-3-yl}-amide] | < 100
O=C(Nc1cnn(CC2CCCCC2)c1)c1c[nH]c(=O)c(-c2cc3ccccc3[nH]2)c1 [Example 34, 5-(1H-Indol-2-yl)-6-oxo-1,6-dihydro-pyridine-3-carboxylic acid (1-cyclohexylmethyl-1H-pyrazol-4-yl)-amide] | 500 to 1500
O=C(Nc1c[nH]c(=O)c(-c2cc3cc(CN4CCCCC4)ccc3[nH]2)c1)c1cnn(Cc2ccc(Cl)cc2)c1 [Example 44, 1-(4-Chloro-benzyl)-1H-pyrazole-4-carboxylic acid [6-oxo-5-(5-piperidin-1-ylmethyl-1H-indol-2-yl)-1,6-dihydro-pyridin-3-yl]-amide] | < 100
CN1CCN(Cc2ccc3[nH]c(-c4cc(NC(=O)c5cnn(Cc6ccccc6)c5)c[nH]c4=O)cc3c2)CC1 [Example 58, 1-Benzyl-1H-pyrazole-4-carboxylic acid {5-[5-(4-methyl-piperazin-1-ylmethyl)-1H-indol-2-yl]-6-oxo-1,6-dihydro-pyridin-31}-amide] | < 100
CC(C)(COc1ccc2[nH]c(-c3cc(NC(=O)c4cnn(Cc5ccccc5)c4)c[nH]c3=O)cc2c1)CN1CC[C@H](F)C1 [Example 183, 1-Benzyl-1H-pyrazole-4-carboxylic acid (5-{5-[3-((S)-3-fluoro-pyrrolidin-1-yl)-2,2-dimethyl-propoxyl]-1H-indol-2-yl}-6-oxo-1,6-dihydro-pyridin-3-yl)-amide] | < 100
O=C(Nc1cnn(Cc2ccccc2F)c1)c1c[nH]c(=O)c(-c2cc3ccccc3[nH]2)c1 [Example 8, 5-(1H-Indol-2-yl)-6-oxo-1,6-dihydro-pyridine-3-carboxylic acid [1-(2-fluoro-benzyl)-1H-pyrazol-4-yl]-amide] | 100 to 500
O=C(Nc1c[nH]c(=O)c(-c2cc3ccccc3[nH]2)c1)c1cnn(Cc2ccc(C(F)(F)F)cc2)c1 [Example 25, 1-(4-Trifluoromethyl-benzyl)-1H-pyrazole-4-carboxylic acid [5-(1H-indol-2-yl)-6-oxo-1,6-dihydro-pyridin-3-yl]-amide] | 100 to 500
O=C(Nc1cnn(Cc2ccc(F)c(F)c2)c1)c1c[nH]c(=O)c(-c2cc3cc(CN4CCCC4)ccc3[nH]2)c1 [Example 98, 6-oxo-5-(5-pyrrolidin-1-ylmethyl-1H-indol-2-yl)-1,6-dihydro-pyridine-3-carboxylic acid [1-(3,4-difluoro-benzyl)-1H-pyrazol-4-yl]-amide] | < 100
Cc1[nH]c(=O)c(-c2cc3ccccc3[nH]2)cc1NC(=O)c1cnn(Cc2ccc(F)cc2)c1 [Example 32, 1-(4-Fluoro-benzyl)-1H-pyrazole-4-carboxylic acid [5-(1H-indol-2-yl)-2-methyl-6-oxo-1,6-dihydro-pyridin-3-yl]-amide] | 100 to 500
O=C(Nc1c[nH]c(=O)c(-c2cc3cc(OCC4(CN5CCCC5)CC4)ccc3[nH]2)c1)c1cnn(Cc2ccccc2)c1 [Example 187, 1-Benzyl-1H-pyrazole-4-carboxylic acid {6-oxo 5-[5-(1-pyrrolidin-1-ylmethyl-cyclopropylmethoxy)-1H-indol-2-yl]-1,6-dihydro-pyridin-3-yl}-amide] | < 100
Cc1ccc(Cn2cc(C(=O)Nc3c[nH]c(=O)c(-c4cc5ccccc5[nH]4)c3)cn2)cc1 [Example 29, 1-(4-Methyl-benzyl)-1H-pyrazole-4-carboxylic acid [5-(1H-indol-2-yl)-6-oxo-1,6-dihydro-pyridin-3-yl]-amide] | < 100
CC1CCN(Cc2ccc3[nH]c(-c4cc(NC(=O)c5cnn([C@H](C)c6ccccc6)c5)c[nH]c4=O)cc3c2)CC1 [Example 167, 1-((R)-1-Phenyl-ethyl)-1H-pyrazole-4-carboxylic acid {5-[5-(4-methyl-piperidin-1-ylmethyl)-1H-indol-2-yl]-6-oxo-1,6-dihydro-pyridin-3-yl}-amide] | < 100
CN(C)CCN(C)Cc1ccc2[nH]c(-c3cc(NC(=O)c4cnn(Cc5ccccc5)c4)c[nH]c3=O)cc2c1 [Example 170, 1-Benzyl-1H-pyrazole-4-carboxylic acid [5-(5-{1(2-dimethylamino-ethyl)-methyl-aminol-methyl}-1H-indol-2-yl)-6-oxo-1,6-dihydro-pyridin-3-yl]-amide] | < 100
CCc1cccc(Cn2cc(C(=O)Nc3c[nH]c(=O)c(-c4cc5cc(OCCN(CC)CC)ccc5[nH]4)c3)cn2)c1 [Example 130, 1-(3-Ethyl-benzyl)-1H-pyrazole-4-carboxylic acid {5-[5-(2-diethylamino-ethoxy)-1H-indol-2-yl]-6-oxo-1,6-dihydro-pyridin-3-yl}-amide] | < 100
CN(CCO)Cc1ccc2[nH]c(-c3cc(C(=O)Nc4cnn(Cc5ccc(F)c(F)c5)c4)c[nH]c3=O)cc2c1 [Example 101, 5-(5-{[(2-hydroxyethyl)-methylamino]-methyl}-1H-indol-2yl)-6-oxo-1,6-dihydropyridine-3-carboxylic acid[1-(3,4-difluorobenzyl)-1H-pyrazol-4-yl]-amide] | < 100
O=C(Nc1c[nH]c(=O)c(-c2cc3cc(OCCN4CCCCC4)ccc3[nH]2)c1)c1cnn(Cc2ccccc2)c1 [Example 149, 1-Benzyl-1H-pyrazole-4-carboxylic acid {6-oxo-5-[5-(2-piperidin-1-yl-ethoxy)-1H-indol-2-yl]-1,6-dihydro-pyridin-3-yl}-amide] | < 100
O=C(Nc1c[nH]c(=O)c(-c2cc3ccccc3[nH]2)c1)c1cnn(Cc2ccc(F)cc2)c1 [Example 21, 1-(4-Fluoro-benzyl)-1H-pyrazole-4-carboxylic acid [5-(1H-indol-2-yl)-6-oxo-1,6-dihydro-pyridin-3-yl]-amide] | < 100
